# Assays:
# Bmal1 clock gene [1] = assay: Bmal1 clock gene expression in HepG2 cells by qPCR; type: cell-based, human; conditions: HepG2, 50 μg/mL, eight hours after addition, DMSO control
# Procedure: (§1) Cultured cells (human liver cancer-derived cell line HepG2) were seeded at 2.5×10^3 cells/cm^2 in a T-75 flask (BD Falcon™), and medium replacement (RPMI1640, 10% FBS) was performed every three days. The cells reaching 80% confluence were passaged at a concentration of 4.2×10^4 cells/mL in a 6-well plate (BD Falcon™), and in order to entrain the phases of the circadian rhythms of the cells, the medium was replaced with a low-serum medium (RPMI1640, 2% FBS) after three days. Three days after the replacement with a low-serum medium, the cells were subjected to testing. A solution of the test substance in DMSO (50 μg/μL) was prepared and added to the 6-well plate to give a final concentration of the test substance of 50 μg/mL. As a control, DMSO was added to the 6-well plate (to give a final concentration of 0.1%).
# (§2) Eight hours after the addition of the test substance, the cells were harvested, and mRNA was extracted according to a conventional method. The extracted mRNA was used to analyze the expression levels of the Bmal1 and Per1 clock genes by qPCR (with Applied Biosystems 7900HT Fast Real-Time PCR System).
# Per1 clock gene [2] = assay: Per1 clock gene expression in HepG2 cells by qPCR; type: cell-based, human; conditions: HepG2, 50 μg/mL, eight hours after addition, DMSO control
# Procedure: as §1, §2
# Bmal1 clock gene [3] = assay: Bmal1 clock gene expression in liver of SD rats by quantitative PCR; type: in vivo; conditions: 200 mg/5 mL/kg orally once daily for 5 days, sampled four hours after the last treatment
# Procedure: (§3) Seven-week-old male SD rats were habituated for one week and then classified into a test food group (isolated oleuropein group) and a control group (each group consisting of 6 animals). Next, the isolated oleuropein was dissolved in distilled water (produced by Otsuka Pharmaceutical Co., Ltd.), and the solution was orally administered forcibly to the test food group at a dose of 200 mg/5 mL/kg once daily for 5 days. The control food group was orally fed forcibly with distilled water (produced by Otsuka Pharmaceutical Co., Ltd.) at a dose of 5 mL/kg once daily for 5 days. Four hours after the last treatment, liver sampling was done.
# (§4) From the liver samples collected, total RNA was extracted according to a conventional method, and used to analyze the expression levels of the Bmal1 and Per1 clock genes by quantitative PCR (with Applied Biosystems 7900HT Fast Real-Time PCR System).
# Per1 clock gene [4] = assay: Per1 clock gene expression in liver of SD rats by quantitative PCR; type: in vivo; conditions: 200 mg/5 mL/kg orally once daily for 5 days, sampled four hours after the last treatment
# Procedure: as §3, §4
SMILES,Bmal1 expression (Bmal1 clock gene [1]),Per1 expression (Per1 clock gene [2]),Bmal1 expression as compared to the control group (Bmal1 clock gene [3]),Per1 expression as compared to the control group (Per1 clock gene [4])
"COC(=O)C1=CO[C@@H](C)[C@@H](C=O)C1CC(=O)OCCc1ccc(O)c(O)c1 (mixture of isomers) [3,4-DHPEA-EA, 3,4-Dihydroxyphenylethanol-elenolic acid]",reduced,increasing,,
"C/C=C1/[C@H](O[C@@H]2O[C@H](CO)[C@@H](O)[C@H](O)[C@H]2O)OC=C(C(=O)OC)[C@H]1CC(=O)OCCc1ccc(O)c(O)c1 [isolated oleuropein, Oleuropein]",,,significant decrease,significant increase
